Measurements published in ChEMBL document CHEMBL1201862, “PubChem BioAssay data set” (2004).
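A five-concentration, 48-hour dose response in 96-well plates underlies each endpoint, interpolated linearly between surrounding concentrations. Here, GI50 denotes the concentration required for 50% inhibition of growth.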 The source made the active and inactive calls. Rule as the data show it: active = GI50 up to about 1.1 µM and inactive = higher.

How the values were obtained:
Test in all cases: growth of human tumour cells (NCI), 48 h
HT-29 = test system: HT-29
RPMI-8226 = test system: RPMI-8226
SN12C = test system: SN12C
TK-10 = test system: TK-10
UACC-62 = test system: UACC-62
UACC-257 = test system: UACC-257
SF-268 = test system: SF-268
NCI-H522 = test system: NCI-H522
HCC 2998 = test system: HCC 2998
OVCAR-8 = test system: OVCAR-8
K562 = test system: K562
SK-OV-3 = test system: SK-OV-3
SK-MEL-28 = test system: SK-MEL-28
NCI/ADR-RES = test system: NCI/ADR-RES
Malme-3M = test system: Malme-3M
SNB-75 = test system: SNB-75
MCF7 = test system: MCF7
SW-620 = test system: SW-620
MDA-MB-435 = test system: MDA-MB-435
RXF 393 = test system: RXF 393

| SMILES | GI50 (HT-29) | GI50 (RPMI-8226) | GI50 (SN12C) | GI50 (TK-10) | GI50 (UACC-62) | GI50 (UACC-257) | GI50 (SF-268) | GI50 (NCI-H522) | GI50 (HCC 2998) | GI50 (OVCAR-8) | GI50 (K562) | GI50 (SK-OV-3) | GI50 (SK-MEL-28) | GI50 (NCI/ADR-RES) | GI50 (Malme-3M) | GI50 (SNB-75) | GI50 (MCF7) | GI50 (SW-620) | GI50 (MDA-MB-435) | GI50 (RXF 393) |
| --- | --- | --- | --- | --- | --- | --- | --- | --- | --- | --- | --- | --- | --- | --- | --- | --- | --- | --- | --- | --- |
| NCCN1CC2CCC(CC2)C1 | > 10 µM (inactive) | > 10 µM (inactive) | > 10 µM (inactive) | > 10 µM (inactive) | > 10 µM (inactive) | > 10 µM (inactive) | > 10 µM (inactive) | > 10 µM (inactive) | > 10 µM (inactive) | > 10 µM (inactive) | > 10 µM (inactive) | > 10 µM (inactive) | > 10 µM (inactive) | > 10 µM (inactive) | > 10 µM (inactive) | > 10 µM (inactive) | > 10 µM (inactive) | > 10 µM (inactive) | > 10 µM (inactive) | > 10 µM (inactive) |
| CN(C)CCC(=O)N1C/C(=C\c2ccc(Cl)c(Cl)c2)C(=O)/C(=C/c2ccc(Cl)c(Cl)c2)C1 | 0.188 µM (active) | 0.074 µM (active) | 0.207 µM (active) | 0.625 µM (active) | 0.608 µM (active) | 1.1 µM (active) | 0.309 µM (active) | 0.2 µM (active) | 0.321 µM (active) | 0.265 µM (active) | 0.038 µM (active) | 1.86 µM (inactive) | 0.618 µM (active) | 0.147 µM (active) | 0.64 µM (active) | 0.415 µM (active) | 0.14 µM (active) | 0.102 µM (active) | 0.347 µM (active) | 0.269 µM (active) |
| O=[N+]([O-])c1ccc(/C=N/CC2CCCN3CCCCC23)cc1 (stereo not drawn) | 16.9 µM (inactive) | 17.3 µM (inactive) | > 100 µM (inactive) | > 100 µM (inactive) | > 100 µM (inactive) | > 100 µM (inactive) | > 100 µM (inactive) | > 100 µM (inactive) | 28.6 µM (inactive) | 43.2 µM (inactive) | 19.5 µM (inactive) | > 100 µM (inactive) | > 100 µM (inactive) | > 100 µM (inactive) | > 100 µM (inactive) | 31.6 µM (inactive) | 24 µM (inactive) | 32.2 µM (inactive) | 61.7 µM (inactive) | 46 µM (inactive) |
| CCN(CC)CCCNc1nncc2c(C)c3[nH]c4ccc(OC)cc4c3cc12 | 0.504 µM (active) | 0.724 µM (active) | 0.271 µM (active) | 2.82 µM (inactive) | 1.29 µM (inactive) | 2.35 µM (inactive) | 0.706 µM (active) | 0.0256 µM (active) | 0.65 µM (active) | 0.182 µM (active) | 0.14 µM (active) | 1.17 µM (inactive) | 0.766 µM (active) | 38.8 µM (inactive) | 0.916 µM (active) | 0.64 µM (active) | 0.0975 µM (active) | 0.184 µM (active) | 1.11 µM (active) | 1.32 µM (inactive) |
| CCCOc1ccc(-c2nc(-c3ccc(/N=C/c4ccc(N(CCOS(C)(=O)=O)CCOS(C)(=O)=O)cc4C)cc3)cs2)cc1 | 17.9 µM (inactive) | 61.1 µM (inactive) | 16.8 µM (inactive) | 18.8 µM (inactive) | 5.31 µM (inactive) | 38 µM (inactive) | 11.5 µM (inactive) | 2.16 µM (inactive) | 12 µM (inactive) | 25.5 µM (inactive) | 22.5 µM (inactive) | 5.93 µM (inactive) | 67.9 µM (inactive) | 23.6 µM (inactive) | 44.4 µM (inactive) | 2.78 µM (inactive) | 15.2 µM (inactive) | 25.7 µM (inactive) | 33.8 µM (inactive) | 6.08 µM (inactive) |
| N/C(=N\n1c(=S)[nH]c2ccccc2c1=O)Nn1c(=S)[nH]c2ccccc2c1=O |  | 22.4 µM (inactive) |  | > 100 µM (inactive) | 75 µM (inactive) | > 100 µM (inactive) | 21.1 µM (inactive) | 13.3 µM (inactive) | > 100 µM (inactive) | 28.8 µM (inactive) | 26.6 µM (inactive) | > 100 µM (inactive) | 28.2 µM (inactive) | 47.6 µM (inactive) | 20.5 µM (inactive) | 25.1 µM (inactive) | 33.7 µM (inactive) | 18.9 µM (inactive) | 36.9 µM (inactive) | 35.3 µM (inactive) |
| COc1ccc([N+](=O)[O-])c2c(NCCCN(C)C)c3ccccc3nc12 | 0.07 µM (active) | 0.218 µM (active) | 0.26 µM (active) | 0.399 µM (active) | 0.127 µM (active) | 0.23 µM (active) | 0.236 µM (active) | 0.0286 µM (active) | < 0.0319 µM (active) | 0.288 µM (active) | 0.133 µM (active) | 0.33 µM (active) | 3 µM (inactive) | 2.87 µM (inactive) | 0.155 µM (active) | 0.222 µM (active) | 0.0155 µM (active) | 0.0929 µM (active) | 0.306 µM (active) | 0.0838 µM (active) |
